Series [1] relates to human immunodeficiency virus (HIV). The note with it: cited from earlier work.
The test system of series [2] is CXCR4 receptor. The note with it: mutated receptor (not named); cited from earlier work.
For series [3], the system named is CD34+ HSCs / peripheral white blood cells. As to the kind of experiment: HSC mobilization in rats, flow cytometric analysis of peripheral blood. It counts as in vivo. The note with it: for peripheral CD34+ absolute count / total lymphocyte count: single dose; for average total WBC: single sc dose (plerixafor 2 mg/kg, G-CSF 300 μg/kg), n=3. On the procedure:
Rats (n=3 per treatment group) were administered a single dose of plerixafor (2 mg/kg), G-CSF (300 μg/kg) or both. In FIG. 2A, peripheral total white blood cell (WBC) count, total lymphocytes, and CD34^+ cells were measured in […] by FACS analysis at 1 hr and 6 hrs after injection. […] See Mozobil (plerixafor injection) Product Monograph 2009 (Genzyme Corporation, Cambridge, Mass.).
Mobilization of HSCs. For HSC mobilization, plerixafor and G-CSF were administered by subcutaneous injection at weight-based doses consistent with those that have proven effective in human clinical trials or as has been used previously by the present inventors (plerixafor, 2 mg/kg/dose; G-CSF 300 μg/kg/dose). Plerixafor and G-CSF were administered 12-hours following CCl4 injection, in treatment groups comprised of eight to ten animals. Control treatment groups were administered an injection with an equivalent volume of saline.
Flow Cytometric Analysis of Peripheral Blood. Following HSC mobilization, animals were sacrificed at either one or six hours post treatment and blood was collected. Leukocyte suspensions (1×10^6) of peripheral blood were analyzed for CD34, Thy-1 and c-Kit expression. Nonspecific antibody binding was blocked with mouse and donkey serum (Sigma) for 30 minutes. The cells were incubated with Alexa Fluor 647 conjugated mouse anti-rat CD34 (1:10) (Santa Cruz Biotechnology), fluorescein isothiocyanate (FITC)-conjugated mouse anti-rat CD90 (Thy-1, 1:100) (BD Pharmingen), and rabbit anti-rat c-Kit (1:100) (Santa Cruz Biotechnology) for 45 minutes at 4° C., followed by phycoerythrin (PE)-conjugated donkey anti-rabbit IgG (1:200) (eBioscience) for 30 minutes at 4° C. The CD34, Thy-1 and c-Kit positive cells were counted by flow cytometry using CELLQuest software (Becton-Dickinson).
(A flow cytometer gives signals particle by particle.)

Series [4] relates to CD34+ cells / HSCs. The conditions noted are these: healthy volunteers; cited from earlier work.
The subject of series [5] is CD34+ stem cells in peripheral blood. The conditions noted are these: pigs. The procedure:
The dosage of plerixafor used in swine transplants was based on the experiments in rats. It is possible that the effective dosage of plerixafor will differ among species. The efficacy of plerixafor was tested in non-transplanted pigs and blood cell count and flow cytometric analysis were used to measure CD34^+ stem cells in peripheral blood.

Series [6] concerns C57BL/6 mice. Description: Rodent model of acute liver failure: CCl4 dose finding (survival, serum transaminases). It counts as in vivo. The procedure:
FIG. 1A-1C describes mortality and hepatic injury after injection of carbon tetrachloride (CCl4). FIG. 1A is a graph showing percent survival over four days among groups (n=10) of mice administered intraperitoneal injections of CCL4 at doses of 2 ml/kg (solid line), 3 ml/kg (dashed line), 4 ml/kg (diamond markers), or 4.5 ml/kg (circle markers). FIG. 1B is a graph displaying peak liver function test (LF) results, specifically, serum aspartate transaminase (AST) (dark bars) and alanine transaminase (ALT) (light bars) levels in mice (n=2) 24 hrs and 96 hrs after intraperitoneal injection of CCL4 at 4 ml/kg compared to baseline levels in uninjected animals (0 hrs).
Rodent models of Acute Liver Failure.
The large majority of animals in this group were transiently ill but rapidly regained vigor. […] A dose of 4 ml/kg would result in about 60% to 100% mortality among the animals over the course of three to seven days. Slight adjustments in the dose (i.e., 4.5 ml/kg) at this level would have obvious effects on mortality with all animals succumbing within 24-48 hours.
A dose of 4 ml/kg was eventually selected for the final model. Mortality with this dose was typically about 80% around five days and was preceded by a significant elevation in serum transaminases. AST and ALT levels peaked at approximately 5,000 on day one to two after injury (FIG. 1B).

[7] abbreviates: CCl4 4 ml/kg, day one to two after injury.

Turning to `c1cc(CN2CCCNCCNCCCNCC2)ccc1CN1CCCNCCNCCCNCC1` [plerixafor, 1,1′-[1,4-phenylenebis(methylene)]bis-1,4,8,11-tetraazacyclo-tetradecane], in series [1], the “anti-HIV efficacy in vivo” value was “not an effective anti-HIV agent”. Besides, in series [2], the “affinity of mutated receptor relative to affinity in CXCR4” value is reported as no more than 10 fold; the “increase in affinity after introduction of Glu at VII:06 and removal of Lys at VII:02” value is recorded as 1000 fold. For the same molecule, in series [3] (one hour), the “peripheral CD34+ absolute count” value worked out at 333 cells/ml and the total lymphocyte count is 4,400. In series [3] (six hours), the “peripheral CD34+ absolute count” value is 135 cells/ml and the total lymphocyte count is 4,800. Also, the “average total WBC” value in series [3] (1 hour) is 6,100. Also, the “average total WBC” value in series [3] (6 hours) is 7,300. In series [4], the “mobilization of HSCs to the periphery” value was “massive mobilization”. Further, in series [5] (after subcutaneous injection), the “time of peak CD34+ cell levels” value amounted to 3 h. For the same molecule, the “difference in number of CD34+ cells between 1 mg/kg and 2 mg/kg” value in series [5] (at 2, 3 and 6 hours after injection) is on record as “no significant difference”. In series [5] (subcutaneous injection, time-dependent), the “absolute number of CD34+ cells per ml blood” value was “significantly increased”.
For `ClC(Cl)(Cl)Cl` [CCL4, carbon tetrachloride], the “mortalities per ten animals” value in series [6] (CCl4 2 ml/kg intraperitoneal, within first one to two days) was “one or two”. For the same molecule, in series [6] (CCl4 4 ml/kg, around five days), the mortality entry is given as “about 80%”. In series [6] (setting [7]), the “peak serum ALT level” value is “approximately 5,000” and the “peak serum AST level” value is given as “approximately 5,000”. Further, the “time within which all animals succumbed” value in series [6] (CCl4 4.5 ml/kg) lay within 24 to 48 h.

B1: G-CSF: granulocyte colony stimulating factor, stem cell mobilizer (protein, UniProt P09919 31-207, looked up)
Granulocyte …: TPLGPASSLPQSFLLKCLEQVRKIQGDGAALQEKLVSECATYKLCHPEELVLLGHSLGIPWAPLSSCPSQALQLAGCLSQLHSGLFLYQGLLQALEGISPELGPTLDTLQLDVADFATTIWQQMEELGMAPALQPTQGAMPAFASAFQRRAGGVLVASHLQSFLEVSYRVLRHLAQP
For the molecule B1, the entries for the “peripheral CD34+ absolute count” value in series [3] (one hour) and in series [3] (six hours) were 216 cells/ml and 238 cells/ml, respectively. The total lymphocyte count in series [3] (one hour) was 2,000; in series [3] (six hours), 4,100. Further, the entries for the “average total WBC” value in series [3] (1 hour) and in series [3] (6 hours) were 3,300 and 7,800, respectively.

These data come from US10086045B2, “Methods of treatment using stem cell mobilizers” (THE JOHNS HOPKINS UNIVERSITY, priority 2010, dated 2018).
